Results as given in US20170050957A1, “4-AMINO-6-(HETEROCYCLIC)PICOLINATES AND 6-AMINO-2-(HETEROCYCLIC)PYRIMIDINE-4-CARBOXYLATES AND THEIR USE AS HERBICIDES” (Dow AgroSciences LLC, priority 2013, published 2017).
Read-outs that look alike come from different tables or passages of the source.

How the values were obtained:
[1] = system: Key Broadleaf Weed and Crop Species; test: Post-emergent Test II herbicidal activity (Table 15); assay type: in vivo; details: post-emergence, 336 h, 14 d; for pest or weed control at 35 g/ha: 35 g ai/ha; for pest or weed control at 70 g/ha: 70 g ai/ha; for pest or weed control at 140 g/ha: 140 g ai/ha
How it was run: (§1)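 Visual injury rating (0 = none, 100 = complete kill) taken 14 d after treatment, relative to untreated plants. Compounds in acetone/DMSO with crop oil concentrate and Triton X-155 were track-sprayed at 187 L/ha onto seedlings at the first-second true leaf stage.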

undesirable vegetation = test: Herbicidal activity, comparison X is CF with X is CH; assay type: in vivo; details: 1.08 and 1.09 vs 1.21 and 1.22; 1.15 and 1.16 vs 1.23 and 1.24; A is A15
[2] = system: Key Grass and Sedge Weeds as well as Grass Crops; test: Post-emergent Test II herbicidal activity (Table 16); assay type: in vivo; details: post-emergence, 336 h, 14 d; for pest or weed control at 35 g/ha: 35 g ai/ha; for pest or weed control at 70 g/ha: 70 g ai/ha; for pest or weed control at 140 g/ha: 140 g ai/ha
How it was run: as §1

[3] = Abutilon theophrasti, velvetleaf (Abutilon theophrasti), read-out: Visual Growth Reduction (%) 14 Days After Application, ABUTH
[4] = Amaranthus retroflexus, redroot pigweed (Amaranthus retroflexus), read-out: Visual Growth Reduction (%) 14 Days After Application, AMARE
[5] = Brassica napus, oilseed rape, canola (Brassica napus), read-out: Visual Growth Reduction (%) 14 Days After Application, BRSNN
[6] = Chenopodium album, lambsquarters (Chenopodium album), read-out: Visual Growth Reduction (%) 14 Days After Application, CHEAL
[7] = Euphorbia heterophylla, wild poinsettia (Euphorbia heterophylla), read-out: Visual Growth Reduction (%) 14 Days After Application, EPHHL
[8] = Helianthus annuus, sunflower (Helianthus annuus), read-out: Visual Growth Reduction (%) 14 Days After Application, HELAN
[9] = Cyperus esculentus, yellow nutsedge (Cyperus esculentus), read-out: Visual Growth Reduction (%) 14 Days After Application, CYPES
[10] = Echinochloa crus-galli, barnyardgrass (Echinochloa crus-galli), read-out: Visual Growth Reduction (%) 14 Days After Application, ECHCG
[11] = Oryza sativa, rice (Oryza sativa), read-out: Visual Growth Reduction (%) 14 Days After Application, ORYSA
[12] = Setaria faberi, giant foxtail (Setaria faberi), read-out: Visual Growth Reduction (%) 14 Days After Application, SETFA
[13] = Triticum aestivum, wheat, spring (Triticum aestivum), read-out: Visual Growth Reduction (%) 14 Days After Application, TRZAS
[14] = Zea mays, maize, corn (Zea mays), read-out: Visual Growth Reduction (%) 14 Days After Application, ZEAMX

Row | Compound | pest or weed control at 35 g/ha [1, 3] [%] | pest or weed control at 70 g/ha [1, 3] [%] | pest or weed control at 140 g/ha [1, 3] [%] | pest or weed control at 35 g/ha [1, 4] [%] | pest or weed control at 70 g/ha [1, 4] [%] | pest or weed control at 140 g/ha [1, 4] [%] | pest or weed control at 35 g/ha [1, 5] [%] | pest or weed control at 70 g/ha [1, 5] [%] | pest or weed control at 140 g/ha [1, 5] [%] | pest or weed control at 35 g/ha [1, 6] [%] | pest or weed control at 70 g/ha [1, 6] [%] | pest or weed control at 140 g/ha [1, 6] [%] | pest or weed control at 35 g/ha [1, 7] [%] | pest or weed control at 70 g/ha [1, 7] [%] | pest or weed control at 140 g/ha [1, 7] [%] | pest or weed control at 35 g/ha [1, 8] [%] | pest or weed control at 70 g/ha [1, 8] [%] | pest or weed control at 140 g/ha [1, 8] [%] | activity when X is CF compared with X is CH (undesirable vegetation) | pest or weed control at 35 g/ha [2, 9] [%] | also measured
1 | COC(=O)c1nc(-c2ccc3cc[nH]c3c2)c(F)c(N)c1Cl [Compound 1.08] | 85 to 94 | 95 to 100 | 95 to 100 | 95 to 100 | 95 to 100 | 95 to 100 | 45 to 59 | 75 to 84 | 85 to 94 | 95 to 100 | 95 to 100 | 95 to 100 | 95 to 100 | 95 to 100 | 95 to 100 | 85 to 94 | 95 to 100 | 95 to 100 | significant increase in activity | 0 to 29 | pest or weed control at 70 g/ha [2, 9]: 0 to 29%; pest or weed control at 140 g/ha [2, 9]: 0 to 29%; pest or weed control at 35 g/ha [2, 10]: 85 to 94%; pest or weed control at 70 g/ha [2, 10]: 95 to 100%; pest or weed control at 140 g/ha [2, 10]: 95 to 100%; pest or weed control at 35 g/ha [2, 11]: 0 to 29%; pest or weed control at 70 g/ha [2, 11]: 0 to 29%; pest or weed control at 140 g/ha [2, 11]: 0 to 29%; pest or weed control at 35 g/ha [2, 12]: 0 to 29%; pest or weed control at 70 g/ha [2, 12]: 60 to 74%; pest or weed control at 140 g/ha [2, 12]: 75 to 84%; pest or weed control at 35 g/ha [2, 13]: 0 to 29%; pest or weed control at 70 g/ha [2, 13]: 0 to 29%; pest or weed control at 140 g/ha [2, 13]: 30 to 44%; pest or weed control at 35 g/ha [2, 14]: 45 to 59%; pest or weed control at 70 g/ha [2, 14]: 75 to 84%; pest or weed control at 140 g/ha [2, 14]: 85 to 94%; melting point: 66 to 69 °C
2 | COC(=O)c1nc(-c2ccc3cc[nH]c3c2F)c(F)c(N)c1Cl [Compound 1.15, Methyl 4-amino-3-chloro-5-fluoro-6-(7-fluoro-1H-indol-6-yl)picolinate] | 95 to 100 | 95 to 100 | 95 to 100 | 95 to 100 | 95 to 100 | 95 to 100 | 75 to 84 | 95 to 100 | 95 to 100 | 95 to 100 | 95 to 100 | 95 to 100 | 95 to 100 | 95 to 100 | 95 to 100 | 95 to 100 | 95 to 100 | 95 to 100 | significant increase in activity | 0 to 29 | pest or weed control at 70 g/ha [2, 9]: 60 to 74%; pest or weed control at 140 g/ha [2, 9]: 45 to 59%; pest or weed control at 35 g/ha [2, 10]: 75 to 84%; pest or weed control at 70 g/ha [2, 10]: 85 to 94%; pest or weed control at 140 g/ha [2, 10]: 95 to 100%; pest or weed control at 35 g/ha [2, 11]: 0 to 29%; pest or weed control at 70 g/ha [2, 11]: 0 to 29%; pest or weed control at 140 g/ha [2, 11]: 30 to 44%; pest or weed control at 35 g/ha [2, 12]: 60 to 74%; pest or weed control at 70 g/ha [2, 12]: 60 to 74%; pest or weed control at 140 g/ha [2, 12]: 85 to 94%; pest or weed control at 35 g/ha [2, 13]: 45 to 59%; pest or weed control at 70 g/ha [2, 13]: 60 to 74%; pest or weed control at 140 g/ha [2, 13]: 60 to 74%; pest or weed control at 35 g/ha [2, 14]: 0 to 29%; pest or weed control at 70 g/ha [2, 14]: 30 to 44%; pest or weed control at 140 g/ha [2, 14]: 60 to 74%
3 | Nc1c(F)c(-c2ccc3cc[nH]c3c2F)nc(C(=O)O)c1Cl [Compound 1.16, 4-Amino-3-chloro-5-fluoro-6-(7-fluoro-1H-indol-6-yl)picolinic acid] | 85 to 94 | 95 to 100 | 95 to 100 | 95 to 100 | 95 to 100 | 95 to 100 | 95 to 100 | 95 to 100 | 95 to 100 | 95 to 100 | 95 to 100 | 95 to 100 | 95 to 100 | 95 to 100 | 95 to 100 | 95 to 100 | 95 to 100 | 85 to 94 | significant increase in activity | 0 to 29 | pest or weed control at 70 g/ha [2, 9]: 60 to 74%; pest or weed control at 140 g/ha [2, 9]: 85 to 94%; pest or weed control at 35 g/ha [2, 10]: 75 to 84%; pest or weed control at 70 g/ha [2, 10]: 85 to 94%; pest or weed control at 140 g/ha [2, 10]: 95 to 100%; pest or weed control at 35 g/ha [2, 11]: 30 to 44%; pest or weed control at 70 g/ha [2, 11]: 60 to 74%; pest or weed control at 140 g/ha [2, 11]: 60 to 74%; pest or weed control at 35 g/ha [2, 12]: 60 to 74%; pest or weed control at 70 g/ha [2, 12]: 75 to 84%; pest or weed control at 140 g/ha [2, 12]: 85 to 94%; pest or weed control at 35 g/ha [2, 13]: 30 to 44%; pest or weed control at 70 g/ha [2, 13]: 60 to 74%; pest or weed control at 140 g/ha [2, 13]: 60 to 74%; pest or weed control at 35 g/ha [2, 14]: 0 to 29%; pest or weed control at 70 g/ha [2, 14]: 30 to 44%; pest or weed control at 140 g/ha [2, 14]: 60 to 74%
